Laboratory results reported in PubChem BioAssay AID1918991 (Molecular Pharmacology Branch, DTP, NCI, 2023).
pIC50: −log10 of the molar value. “And” between values parts separate entries of the source, which are not always exact repeats. Identical values can stand only once.

Test system: 186277-243-T-J2-PDC complex spheroid growth
Test: Anticancer human tumor 186277-243-T-J2-PDC patient-derived colon adenocarcinoma cell line growth inhibition [AhR]
Settings: for viability, T/C: stronger effect = lower value
Method in brief: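 Spheroids combined tumor cells with HUVEC endothelial cells and human MSCs as stroma. AhR antagonists were paired with standard or investigational drugs, each dosed in half-log steps down from near clinical Cmax, or from 10 microM where Cmax was unknown.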

[1] = curve of first compound, second compound 0.1 µM
[2] = curve of first compound, second compound 0.316 µM
[3] = curve of first compound, second compound 1 µM
[4] = curve of first compound, second compound 3.16 µM
[5] = curve of first compound, second compound 10 µM
[6] = second compound 0.1 µM, first compound 0.0316 µM
[7] = second compound 0.1 µM, first compound 0.1 µM
[8] = second compound 0.1 µM, first compound 0.316 µM
[9] = second compound 0.1 µM, first compound 1 µM
[10] = second compound 0.1 µM, first compound 3.16 µM
[11] = second compound 0.1 µM, first compound 10 µM
[12] = second compound 0.316 µM, first compound 0.0316 µM
[13] = second compound 0.316 µM, first compound 0.1 µM
[14] = second compound 0.316 µM, first compound 0.316 µM
[15] = second compound 0.316 µM, first compound 1 µM
[16] = second compound 0.316 µM, first compound 3.16 µM
[17] = second compound 0.316 µM, first compound 10 µM
[18] = second compound 1 µM, first compound 0.0316 µM
[19] = second compound 1 µM, first compound 0.1 µM
[20] = second compound 1 µM, first compound 0.316 µM
[21] = second compound 1 µM, first compound 1 µM
[22] = second compound 1 µM, first compound 3.16 µM
[23] = second compound 1 µM, first compound 10 µM
[24] = second compound 3.16 µM, first compound 0.0316 µM
[25] = second compound 3.16 µM, first compound 0.1 µM
[26] = second compound 3.16 µM, first compound 0.316 µM
[27] = second compound 3.16 µM, first compound 1 µM
[28] = second compound 3.16 µM, first compound 3.16 µM
[29] = second compound 3.16 µM, first compound 10 µM
[30] = second compound 10 µM, first compound 0.0316 µM
[31] = second compound 10 µM, first compound 0.1 µM
[32] = second compound 10 µM, first compound 0.316 µM
[33] = second compound 10 µM, first compound 1 µM
[34] = second compound 10 µM, first compound 3.16 µM
[35] = second compound 10 µM, first compound 10 µM
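Further: spheroids exposed to compounds for seven days before the viability read.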
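Wherever viability, T/C is given: luminescent signal used as a stand-in for viable cell amount; 100% = DMSO vehicle control wells.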

O=C(c1cc(Cc2n[nH]c(=O)c3ccccc23)ccc1F)N1CCN(C(=O)C2CC2)CC1
viability, T/C (compound 0.0316 µM): 97.8% and 98% and 85.2% | viability, T/C (compound 0.1 µM): 93.2% and 103% and 106% | viability, T/C (compound 0.316 µM): 114% and 94.5% and 98.3% | viability, T/C (compound 1 µM): 109% and 92.3% and 85% | viability, T/C (compound 3.16 µM): 132% and 89.9% and 70.9% | viability, T/C (compound 10 µM): 120% and 114% and 36.5% | pIC50 (curve of compound): < 5.00 and 5.20

O=C(C=Cc1cccc(S(=O)(=O)Nc2ccccc2)c1)NO + CC(CO)NC(=O)c1cc(-c2ccc(Cl)cc2)nn(-c2cnn(C)c2)c1=O
pIC50 [1]: 6.49 | pIC50 [2]: 6.46 | pIC50 [3]: 6.55 | pIC50 [4]: 6.61 | pIC50 [5]: 6.79 | viability, T/C [6]: 101% | viability, T/C [7]: 94.5% | viability, T/C [8]: 50.5% | viability, T/C [9]: 9.56% | viability, T/C [10]: 1.99% | viability, T/C [11]: 0.31% | viability, T/C [12]: 92.5% | viability, T/C [13]: 83.8% | viability, T/C [14]: 54.3% | viability, T/C [15]: 10.1% | viability, T/C [16]: 2% | viability, T/C [17]: 0.32% | viability, T/C [18]: 86.1% | viability, T/C [19]: 80.5% | viability, T/C [20]: 46.7% | viability, T/C [21]: 10.7% | viability, T/C [22]: 1.43% | viability, T/C [23]: 0.32% | viability, T/C [24]: 91.5% | viability, T/C [25]: 77.7% | viability, T/C [26]: 43.4% | viability, T/C [27]: 8.38% | viability, T/C [28]: 1.57% | viability, T/C [29]: 0.28% | viability, T/C [30]: 70.2% | viability, T/C [31]: 58.5% | viability, T/C [32]: 37.2% | viability, T/C [33]: 6.55% | viability, T/C [34]: 1.99% | viability, T/C [35]: 0.42%

CC(C)c1c(-c2ccccc2)nc2c(C#N)c[nH]n2c1=O + CC(CO)NC(=O)c1cc(-c2ccc(Cl)cc2)nn(-c2cnn(C)c2)c1=O
pIC50 [1]: < 5.00 | pIC50 [2]: < 5.00 | pIC50 [3]: < 5.00 | pIC50 [4]: < 5.00 | pIC50 [5]: < 5.00 | viability, T/C [6]: 95.2% | viability, T/C [7]: 93.5% | viability, T/C [8]: 88.4% | viability, T/C [9]: 95.5% | viability, T/C [10]: 89.5% | viability, T/C [11]: 79.6% | viability, T/C [12]: 99.5% | viability, T/C [13]: 100% | viability, T/C [14]: 109% | viability, T/C [15]: 92.9% | viability, T/C [16]: 99.2% | viability, T/C [17]: 91.7% | viability, T/C [18]: 104% | viability, T/C [19]: 113% | viability, T/C [20]: 105% | viability, T/C [21]: 104% | viability, T/C [22]: 86.4% | viability, T/C [23]: 93.8% | viability, T/C [24]: 92.2% | viability, T/C [25]: 85.1% | viability, T/C [26]: 91.9% | viability, T/C [27]: 89.8% | viability, T/C [28]: 87.3% | viability, T/C [29]: 95% | viability, T/C [30]: 90.2% | viability, T/C [31]: 85.1% | viability, T/C [32]: 81.8% | viability, T/C [33]: 85.5% | viability, T/C [34]: 76.9% | viability, T/C [35]: 87.3%

Cn1ncnc1C1c2n[nH]c(=O)c3cc(F)cc(c23)NC1c1ccc(F)cc1 (configuration not stated) + CC(CO)NC(=O)c1cc(-c2ccc(Cl)cc2)nn(-c2cnn(C)c2)c1=O
pIC50 [1]: < 7.00 | pIC50 [2]: < 7.00 | pIC50 [3]: < 7.00 | pIC50 [4]: < 7.00 | pIC50 [5]: < 7.00 | viability, T/C (second compound 0.1 µM, first compound 0.000316 µM): 103% | viability, T/C (second compound 0.1 µM, first compound 0.001 µM): 99.3% | viability, T/C (second compound 0.1 µM, first compound 0.00316 µM): 102% | viability, T/C (second compound 0.1 µM, first compound 0.01 µM): 93.5% | viability, T/C [6]: 89.4% | viability, T/C [7]: 63.8% | viability, T/C (second compound 0.316 µM, first compound 0.000316 µM): 111% | viability, T/C (second compound 0.316 µM, first compound 0.001 µM): 106% | viability, T/C (second compound 0.316 µM, first compound 0.00316 µM): 93.1% | viability, T/C (second compound 0.316 µM, first compound 0.01 µM): 96.9% | viability, T/C [12]: 83% | viability, T/C [13]: 64.5% | viability, T/C (second compound 1 µM, first compound 0.000316 µM): 102% | viability, T/C (second compound 1 µM, first compound 0.001 µM): 108% | viability, T/C (second compound 1 µM, first compound 0.00316 µM): 118% | viability, T/C (second compound 1 µM, first compound 0.01 µM): 94.6% | viability, T/C [18]: 79.4% | viability, T/C [19]: 69.3% | viability, T/C (second compound 3.16 µM, first compound 0.000316 µM): 92.7% | viability, T/C (second compound 3.16 µM, first compound 0.001 µM): 109% | viability, T/C (second compound 3.16 µM, first compound 0.00316 µM): 94.7% | viability, T/C (second compound 3.16 µM, first compound 0.01 µM): 86.4% | viability, T/C [24]: 76.5% | viability, T/C [25]: 67.7% | viability, T/C (second compound 10 µM, first compound 0.000316 µM): 87% | viability, T/C (second compound 10 µM, first compound 0.001 µM): 98.1% | viability, T/C (second compound 10 µM, first compound 0.00316 µM): 84.5% | viability, T/C (second compound 10 µM, first compound 0.01 µM): 72.3% | viability, T/C [30]: 61.9% | viability, T/C [31]: 56%

Cc1ccccc1N=Nc1ccc(NC(=O)c2ccnn2C)c(C)c1
viability, T/C (compound 1 µM): 99.2% [middle of 20 runs] | viability, T/C (compound 3.16 µM): 96% [middle of 20 runs] | viability, T/C (compound 10 µM): 88.8% [middle of 20 runs] | pIC50 (compound alone, run of 07/26/2022): < 5.00

COc1cc(Nc2ncc3c(n2)-c2ccc(Cl)cc2C(c2c(F)cccc2OC)=NC3)ccc1C(=O)O
viability, T/C (compound 0.0316 µM): 95.8% and 121% and 27.3% | viability, T/C (compound 0.1 µM): 83.4% and 121% and 22.3% | viability, T/C (compound 0.316 µM): 74.4% and 119% and 20.1% | viability, T/C (compound 1 µM): 69.7% and 114% and 18.9% | viability, T/C (compound 3.16 µM): 79.1% and 117% and 22.9% | viability, T/C (compound 10 µM): 81.5% and 123% and 25.9%

COc1ccc([C@@H](O)c2cc(-c3ncnc4cc(N5CCOCC5)ccc34)c(F)cc2Cl)nn1 + CC(CO)NC(=O)c1cc(-c2ccc(Cl)cc2)nn(-c2cnn(C)c2)c1=O
pIC50 [1]: 5.49 | pIC50 [2]: 5.43 | pIC50 [3]: 5.52 | pIC50 [4]: 5.59 | pIC50 [5]: 5.79 | viability, T/C [6]: 105% | viability, T/C [7]: 96.3% | viability, T/C [8]: 96.8% | viability, T/C [9]: 73.5% | viability, T/C [10]: 51.6% | viability, T/C [11]: 20.7% | viability, T/C [12]: 109% | viability, T/C [13]: 98.8% | viability, T/C [14]: 84.2% | viability, T/C [15]: 85.1% | viability, T/C [16]: 53.9% | viability, T/C [17]: 18.4% | viability, T/C [18]: 95.5% | viability, T/C [19]: 95.6% | viability, T/C [20]: 87.3% | viability, T/C [21]: 78.8% | viability, T/C [22]: 48.4% | viability, T/C [23]: 19.1% | viability, T/C [24]: 88.3% | viability, T/C [25]: 95.7% | viability, T/C [26]: 87% | viability, T/C [27]: 74.8% | viability, T/C [28]: 44.5% | viability, T/C [29]: 18.1% | viability, T/C [30]: 88.8% | viability, T/C [31]: 72.6% | viability, T/C [32]: 78.9% | viability, T/C [33]: 64% | viability, T/C [34]: 30.7% | viability, T/C [35]: 15.6%
